pIC50: −log10 of the molar value. Where two headings read alike, the source gives them in different places.
How the values were obtained:
aerobacter aerogenes = assay: Antibacterial activity; assay type: cell-based
alcaligenes viscolactis = assay: Antibacterial activity; assay type: cell-based
eschereichia coli = assay: Antibacterial activity; assay type: cell-based
P388 leukaemia = P388 leukaemia in vivo test in mice (i.p.); set-up: species or system mouse; conditions: for ILS (percentage increase in life span): at optimal dose (OD), days 1, 5 and 9, P388 i.p., controls survive 11 days, >20% significant; for Active: at the stated dose, P388 in vivo
Excerpt: The P388 mouse leukaemia system has been shown by studies at the National Cancer Institute, U.S.A., to be a useful system for detecting agents with antitumour activity against clinical cancer (A. Goldin, J. M. Venditti, J. S. MacDonald, F. M. Muggia, J. E. Henney and V. T. De Vita, Europ.J.Cancer 17, 129-142 (1981).
Tumour P388 i.p.--P388 cells were obtained as frozen stocks from Mason Research Inc., U.S.A., and passaged introperitoneally according to standard methods (Cancer Chemother.Rep. 3, Part 3, page 9 (1972) in DBA-2 mice of either sex. Groups of six Fl hybrid mice (DBA-2 male x C57 Bl female, g weight 20±1 g) were injected intraperitoneally with 10^6 cells on day 0.
O.D.=optimal drug dose (in milligrams per kilogram), administered as a solution in 0.1 ml of 30% v/v ethyl alcohol in water on days 1, 5 and 9 after tumour inoculation. The drug is administered as a soluble acid addition salt.
ILS=percentage increase in life span of treated animals over that of groups of control animals injected with tumour alone. The average survival of control mice was 11 days. Values of ILS greater than 20% are considered statistically significant.
"Y. implies a significant value of drug activity at the stated dose.".

neisseria catarrhalis = assay: Antibacterial activity; assay type: cell-based
[1] = Reversed-phase partition chromatography (Rm); assay type: physicochemical; conditions: lipophilic-hydrophilic balance, linearly related to 1-octanol/water partition coefficients
Excerpt: Rm=a measure of the compound's lipophilic-hydrophilic balance from reversed-phase partition chromatography. Rm is linearly related to partition coefficients obtained in the 1-octanol/water system.

[2] = tested on: micrococcus lysodeikticus; assay: Antibacterial activity; assay type: cell-based
L1210 tumour cells = assay: L1210 murine leukaemia cell culture, growth inhibition over 70 hours; assay type: cell-based; conditions: Mus musculus
streptococcus faecalis = assay: Antibacterial activity; assay type: cell-based
bacillus subtilis = assay: Antibacterial activity; assay type: cell-based
sarcina lutea = assay: Antibacterial activity; assay type: cell-based
staphylococcus aureus = assay: Antibacterial activity; assay type: cell-based
xanthomonas phaseoli = assay: Antibacterial activity; assay type: cell-based
tumour = conditions: literature; cited from earlier work

COP(=O)(Nc1ccc(Nc2c3ccccc3nc3ccccc23)cc1)OC [Compound 1]
antibacterial activity (aerobacter aerogenes): active
antibacterial activity (alcaligenes viscolactis): active
antibacterial activity (eschereichia coli): active
ILS (percentage increase in life span) (P388 leukaemia): 74%
Active (P388 leukaemia): Y
antibacterial activity (neisseria catarrhalis): active
chromatographic logP [1]: 0.31
antibacterial activity [2]: active
pIC50 (L1210 tumour cells; L1210, 70 h, read-out: ID50): 7.82
antibacterial activity (streptococcus faecalis): active
antibacterial activity (bacillus subtilis): active
antibacterial activity (sarcina lutea): active
antibacterial activity (staphylococcus aureus): active
antibacterial activity (xanthomonas phaseoli): active

COc1cc(NP(=O)(OC)OC)ccc1Nc1c2ccccc2nc2ccccc12 [Compound 2]
ILS (percentage increase in life span) (P388 leukaemia): 67%
Active (P388 leukaemia): Y
chromatographic logP [1]: 0.47
pIC50 (L1210 tumour cells; L1210, 70 h, read-out: ID50): 7.15

COP(=O)(Nc1ccc(Nc2c3ccccc3nc3cc(C)ccc23)cc1)OC [Compound 3]
ILS (percentage increase in life span) (P388 leukaemia): 80%
Active (P388 leukaemia): Y
chromatographic logP [1]: 0.49
pIC50 (L1210 tumour cells; L1210, 70 h, read-out: ID50): 8.17

COP(=O)(Nc1ccc(Nc2c3ccccc3nc3cc(Cl)ccc23)cc1)OC [Compound 4]
ILS (percentage increase in life span) (P388 leukaemia): 54%
Active (P388 leukaemia): Y
chromatographic logP [1]: 0.46
pIC50 (L1210 tumour cells; L1210, 70 h, read-out: ID50): 7.80

COc1cc(NP(=O)(OC)OC)ccc1Nc1c2ccccc2nc2cc(Cl)ccc12 [Compound 5]
ILS (percentage increase in life span) (P388 leukaemia): 78%
Active (P388 leukaemia): Y
chromatographic logP [1]: 0.61
pIC50 (L1210 tumour cells; L1210, 70 h, read-out: ID50): 7.92

COP(=O)(Nc1ccc(Nc2c3ccccc3nc3cc(Br)ccc23)cc1)OC [Compound 6]
ILS (percentage increase in life span) (P388 leukaemia): 76%
Active (P388 leukaemia): Y
chromatographic logP [1]: 0.47
pIC50 (L1210 tumour cells; L1210, 70 h, read-out: ID50): 7.82

COc1cc(NP(=O)(OC)OC)ccc1Nc1c2ccccc2nc2cc(Br)ccc12 [Compound 7]
ILS (percentage increase in life span) (P388 leukaemia): 83%
Active (P388 leukaemia): Y
chromatographic logP [1]: 0.57
pIC50 (L1210 tumour cells; L1210, 70 h, read-out: ID50): 8.31

COP(=O)(Nc1ccc(Nc2c3ccccc3nc3cc([N+](=O)[O-])ccc23)cc1)OC [Compound 8]
ILS (percentage increase in life span) (P388 leukaemia): 22%
Active (P388 leukaemia): Y
chromatographic logP [1]: 0.14
pIC50 (L1210 tumour cells; L1210, 70 h, read-out: ID50): 7.13

COc1cccc2c(Nc3ccc(NP(=O)(OC)OC)cc3)c3ccccc3nc12 [Compound 9]
ILS (percentage increase in life span) (P388 leukaemia): 44%
Active (P388 leukaemia): Y
chromatographic logP [1]: 0.33
pIC50 (L1210 tumour cells; L1210, 70 h, read-out: ID50): 7.70

COc1cc(NP(=O)(OC)OC)ccc1Nc1c2ccccc2nc2c(OC)cccc12 [Compound 10]
ILS (percentage increase in life span) (P388 leukaemia): 76%
Active (P388 leukaemia): Y
chromatographic logP [1]: 0.47
pIC50 (L1210 tumour cells; L1210, 70 h, read-out: ID50): 7.92

CNC(=O)c1cccc2c(Nc3ccc(NP(=O)(OC)OC)cc3)c3ccccc3nc12 [Compound 11]
ILS (percentage increase in life span) (P388 leukaemia): 38%
Active (P388 leukaemia): Y
chromatographic logP [1]: 0.18
pIC50 (L1210 tumour cells; L1210, 70 h, read-out: ID50): 7.01

CNC(=O)c1cccc2c(Nc3ccc(NP(=O)(OC)OC)cc3OC)c3ccccc3nc12 [Compound 12]
ILS (percentage increase in life span) (P388 leukaemia): 118%
Active (P388 leukaemia): Y
chromatographic logP [1]: 0.28
pIC50 (L1210 tumour cells; L1210, 70 h, read-out: ID50): 7.74

COP(=O)(Nc1ccc(Nc2c3ccccc3nc3c(C)cccc23)cc1)OC [Compound 13]
ILS (percentage increase in life span) (P388 leukaemia): 111%
Active (P388 leukaemia): Y
chromatographic logP [1]: 0.46
pIC50 (L1210 tumour cells; L1210, 70 h, read-out: ID50): 8.05

COc1cc(NP(=O)(OC)OC)ccc1Nc1c2ccccc2nc2c(C)cccc12 [Compound 14]
ILS (percentage increase in life span) (P388 leukaemia): 106%
Active (P388 leukaemia): Y
chromatographic logP [1]: 0.44
pIC50 (L1210 tumour cells; L1210, 70 h, read-out: ID50): 7.74

CNC(=O)c1cccc2c(Nc3ccc(NP(=O)(OC)OC)cc3OC)c3ccc(Cl)cc3nc12 [Compound 15]
ILS (percentage increase in life span) (P388 leukaemia): 79%
Active (P388 leukaemia): Y
chromatographic logP [1]: 0.54
pIC50 (L1210 tumour cells; L1210, 70 h, read-out: ID50): 7.30

COP(=O)(Nc1ccc(Nc2c3cccc(C)c3nc3c(C)cccc23)cc1)OC [Compound 16]
ILS (percentage increase in life span) (P388 leukaemia): 109%
Active (P388 leukaemia): Y
chromatographic logP [1]: 0.37
pIC50 (L1210 tumour cells; L1210, 70 h, read-out: ID50): 7.77

CS(=O)(=O)Nc1ccc(Nc2c3ccccc3nc3ccccc23)cc1 [Compound 17, 4'-(9-acridinylamino)methanesulphonanilide, reference compound]
ILS (percentage increase in life span) (P388 leukaemia): 93%
Active (P388 leukaemia): Y
antitumour effect (earlier work) (tumour): marked antitumour effect
pIC50 (L1210 tumour cells; murine L1210 leukaemia cells, 70 hours, counted cell number reduced by 50%, read-out: ID50 (the source's name)): 7.46

COc1cc(NS(C)(=O)=O)ccc1Nc1c2ccccc2nc2ccccc12 [Compound 18, 4'-(9-acridinylamino)methanesulphon-m-anisidide, reference compound]
ILS (percentage increase in life span) (P388 leukaemia): 78%
Active (P388 leukaemia): Y

Source: patent publication US4537729A, “Dimethylphosphoramidates” (Development of Finance Corporation of New Zealand, priority 1981, dated 1985)
